From ChEMBL document CHEMBL3045774, “Viridepyronone, a new antifungal 6-substituted 2H-pyran-2-one produced by Trichoderma viride” (2003)
Converted amounts (≈) assume the structure as drawn. The source made the active and inactive calls. No cut-off for these calls is given here.

Experiments:
Athelia rolfsii [1] = test: Antifungal activity against Athelia rolfsii assessed as mycelial growth inhibition at 246 ug/mL after 3 days; assay type: functional, organism-based; conditions: Agroathelia rolfsii
Athelia rolfsii [2] = test: Antifungal activity against Athelia rolfsii assessed as growth inhibition after 3 days; assay type: functional; conditions: Agroathelia rolfsii, 72 h
Athelia rolfsii [3] = test: Antifungal activity against Athelia rolfsii assessed as growth inhibition at 6.9 x 10^-2 M after 3 days by paper disk assay relative to control; assay type: functional; conditions: Agroathelia rolfsii, 72 h; read-out: GI

- MIC (Athelia rolfsii [2]): 196 µg/mL (≈ 1090 µM)
SMILES: CC(=O)CCCc1cccc(=O)o1 [VIRIDEPYRONONE]
- growth inhibition (GI) (Athelia rolfsii [1]): Active
- inhibition of growth at 69000 µM (Athelia rolfsii [3]): 48%
